Measured values from patent US11564913B2, “Compositions and methods for treating cancer” (Children's Hospital Medical Center, priority 2019, dated 2023).

Key:
[1] = system: phosphorylated Vav3 (pY173) in MDA-MB-231 cells; assay: Immunoblot of phosphorylated Vav3 (pY173); format: cell-based, human; conditions: 3 μM, 15 min
Description: FIG. 16: IODVA1 decreases levels of pVav3 in in vitro and in vivo models of triple negative breast cancer. (A) Immunoblot and quantification of Vav3 protein in lysates of MDA-MB-231 triple negative breast cancer cells stably expressing scrambled or Vav3-targeting shRNAs. Viability of the MDA-MB-231 cells stably expressing shVav3 in the presence of IODVA1 (0-1 μM). Cells were grown in the presence of IODVA1 and counted by trypan blue exclusion at the indicated time points. (B) MDA-MB-231 cells were incubated with IODVA1 (3 μM) for 15 min and the levels of phosphorylated Vav3 (pY173) were assessed by immunoblotting. (C) Immunohistochemical staining of phosphorylated Vav3 in tissue derived from MDA-MB-231 xenografts treated with vehicle control or IODVA1.
Next, we tested if IODVA1 is effective in another model of Vav3-dependent cancer. We chose MDA-MB-231 triple negative breast cancer cells because these cells express high endogenous levels of Vav3 (Chen, 2015) and because Vav3 is an acknowledged target in breast cancer (Chen, 2015; Lee, 2008; Aguilar, 2014; Citterio, 2012; Lorenzo-Martin. 2019). […] Second, we incubated MDA-MB-231 cells with IODVA1 (3 μM) for 15 min and analyzed the levels of phosphorylated Vav3 (pY173) by immunoblotting. […]

[2] = system: wild-type murine BM leukemic cells expressing p190-BCR-ABL; assay: Colony formation assay (CFU-proB); format: cell-based
Description: FIG. 14: IODVA1 targets Vav3 in vitro and in vivo. (A) Ba/F3 cells expressing empty vector Mieg3 or p190-BCR-ABL1 were treated with vehicle control or IODVA1 (IO1, 3 μM) for 30 min and incubated with GST-Rac and glutathione beads. Beads were washed and the protein complexes were separated on SDS-PAGE and immunoblotted for pVav3. Input Vav3 was used as control. (B) Binding affinity (Kd) between IODVA1 and Vav3 (green), LARG (brown), and RacGDP (blue). […] Error bars=SD; N=3. (C) Quantification of the average number of colonies made by bone marrow wild-type (black) and Vav3^−/− (lilac) p190-BCR-ABL1 leukemic cells treated with vehicle control or IODVA1 (IO1, 1 and 3 μM) (* p≤0.05; ** p≤0.01; *** p≤0.001; ns, not significant). […] (E) Quantification by densitometry of the pVav3 band from FIG. 14A. […]
B-cell lineage colony-forming units (CFU-proB) were quantified post 9-day culture of leukemic BM cells or sorted for p190-BCR-ABL-expressing B-cell progenitors in M3134 methylcellulose (StemCell Technologies) supplemented with 30% FBS (for mouse B lymphoid colony forming cells; StemCell Technologies), […] L-glutamine (Invitrogen), 1% penicillin-streptomycin (Invitrogen), 100 μM β-mercaptoethanol (Fisher-Scientific), 1% BSA (Sigma-Aldrich), 20 ng/mL of recombinant mouse IL-7 (PeproTech), and 100 ng/mL of recombinant mouse SCF (PeproTech).

`OC1(c2ccccn2)N=C(Nc2nc3ccccc3[nH]2)N=C1c1ccccn1` (stereo not drawn) [IODVA1, (Z)-2-((1H-benzo[d]imidazol-2-yl)imino)-4,5-di(pyridin-2-yl)-2,5-dihydro-1H-imidazol-5-ol] was tested, and the pY173 signal [1] was “significant decrease”, the “decrease in number of colonies (average)” value ([2]; 1 μM) was 3 folds and the “decrease in number of colonies (average)” value ([2]; 3 μM) was 7 folds.
